Assay results: patent publication US20250304623A1, “PEPTIDES FOR INTRACELLULAR DELIVERY” (UNIVERSIDADE DE SANTIAGO DE COMPOSTELA, priority 2022, published 2025)
Starred links: 1 amine or outer side, 2 acyl side, 3 side chain; linkers in the order of their positions; H or OH if unused. Residues, ends and D or L forms follow the SMILES beside them. Groups on a side chain read outwards from the residue. *: point of attachment. Glutaryl = O=C(CCCC(=O)[*:2])[*:1]; NHNH2 = NN*

How the values were obtained:
Format in all cases: cell-based
Hela cells = assay: EGFP mRNA delivery, robotic library screening, HeLa
Method: (§1) Cells were seeded in a 96 well plate the day before the experiment at a concentration of 50,000 cell/mL (100 μL/w) in DMEM+10% FBS+1% Gln-Abt. For robotic library screening, the delivery of EGFP-mRNA (from TriLink, fully substituted with 5-methoxyuridine, capped and polyadenylated; TriLink, CleanCap® EGFP mRNA (5moU), ref. L-7201) in six different cell lines was performed. Amphiphilic molecule stock solutions were prepared in DMSO as described above and diluted in DMEM to afford a range of concentrations. The solutions of EGFP-mRNA/amphiphilic molecule complexes were freshly prepared prior to the transfection experiments. 35 μL of the corresponding amphiphile were added to 10 μL of a solution of EGFP-mRNA at 10 ng/μL in DMEM. The mixture was shaken for 30 min at room temperature before the addition to the cells. The cell medium was aspirated, and cells were washed with PBS twice. Cells were covered with 39 μL of DMEM and 11 μL of the complex's solution were added to the cells and incubated for 4 h (final concentration of peptide=2.5, 5 and 10 μM; final concentration of EGFP-mRNA=25 ng/well). After the incubation, the medium was replaced by 100 μL of fresh DMEM supplemented with 10% FBS. The total EGFP fluorescence was quantified after 72 h in a well plate reader. Amphiphile transfection efficiency was compared and normalized to Lipofectamine® MessengerMax efficiency (value of 1 in Tables 1-5 and 7; double underlined numbers). All experiments were done in triplicate.
(§2) Tables 1-7: RLuc (pDNA) or EGFP (mRNA) expression levels were normalized to Lipofectamine reagents (value=1) and expressed as fold-times signal increase. In the case of siRNA, the siRNA treated cells fluorescence was compared with siMOCK control fluorescence, while Cas9-RNP mediated knockout was measured against the fluorescence of untreated cells. In both siRNA and Cas9-RNP, values are expressed as % fluorescence reduction. Amphiphile concentration was 5 μM in all cases. All experiments were performed in triplicate.
(§3) Tables 14-19 show the mean (triplicates) fluorescence intensity measured after the transfection of EGFP mRNA by different amphiphiles at different concentrations in a variety of cell lines. Background fluorescence values, accounted by untreated control cells, were subtracted for processing.

HepG2 cells [1] = assay: RLuc pDNA delivery, robotic library screening, HepG2
Procedure, shortened: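 After the 4 h exposure the complexes were replaced with fresh DMEM plus 10% FBS. At 72 hours cells were washed with HBSS, kept 30 minutes at 37° C. for basal readings, then given coelenterazine h (5 μM final) for 10 minutes before total luminescence was read. Triplicate means had untransfected background subtracted and were also expressed relative to Lipofectamine® 2000 set at 1.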

ARPE19 cells = assay: EGFP mRNA delivery, robotic library screening, ARPE19
Method: as §1, §2, §3

HepG2 cells [2] = assay: EGFP mRNA delivery, robotic library screening, HepG2; conditions: for mean fluorescence intensity after transfection of EGFP mRNA: HepG2 cells
Method: as §1, with “Cells were covered with 39 μL of DMEM and 11 μL of the complex's solution were added to the cells and incubated for 4 h (final concentration of peptide=2.5, 5 and 10 μM; final concentration of EGFP-mRNA=25 ng/well).” left out
as §2, §3

Question: What does the source list for `CC(=O)N[C@@H](CCCNC(=N)N)C(=O)N[C@@H](CCCCNC(=O)CCCC(=O)NN)C(=O)N[C@@H](Cc1c[nH]cn1)C(=O)N[C@@H](CCCNC(=N)N)C(=O)N[C@@H](CCCCNC(=O)CCCC(=O)NN)C(=O)N[C@@H](CCCCNC(=O)CCCC(=O)NN)C(=O)N[C@@H](Cc1c[nH]cn1)C(N)=O` [7.3(L-H), Ac-RK*HRK*K*H-NH2] (Ac-RK([Glutaryl-NHNH2])HRK([Glutaryl-NHNH2])K([Glutaryl-NHNH2])H-NH2)?
Answer: mean fluorescence intensity (EGFP mRNA) (Hela cells; HeLa, Myristoleyl, 2.5 μM): 30978; mean fluorescence intensity (EGFP mRNA) (Hela cells; HeLa, Oleyl, 2.5 μM): 13495; mean fluorescence intensity (EGFP mRNA) (Hela cells; HeLa, Oleyl, 5 μM): 16633; mean fluorescence intensity (EGFP mRNA) (Hela cells; HeLa, Palmitoleyl, 2.5 μM): 46778; mean fluorescence intensity (EGFP mRNA) (Hela cells; HeLa, Petroselinyl, 2.5 μM): 15046; mean fluorescence intensity (EGFP mRNA) (Hela cells; HeLa, Petroselinyl, 10 μM): 2234; mRNA delivery relative to Lipofectamine MessengerMAX (Hela cells; HeLa, myristoleyl, palmitoleyl or petroselinyl aldehydes): between two and three times better; mean fluorescence intensity (EGFP mRNA) (Hela cells; Hela, Myristoleyl, 5 μM): 3346; mean fluorescence intensity (EGFP mRNA) (Hela cells; Hela, Palmitoleyl, 5 μM): 21109; mean fluorescence intensity (EGFP mRNA) (Hela cells; Hela, Palmitoleyl, 10 μM): 1577; mean fluorescence intensity (EGFP mRNA) (Hela cells; Hela, Petroselinyl, 5 μM): 28395; mean luminescent intensity (RLuc pDNA) (HepG2 cells [1]; Myristoleyl, 5 μM): 355590 RLU; mean luminescent intensity (RLuc pDNA) (HepG2 cells [1]; Myristoleyl, 10 μM): 584678 RLU; mean luminescent intensity (RLuc pDNA) (HepG2 cells [1]; Myristoleyl, 15 μM): 406961 RLU; mean luminescent intensity (RLuc pDNA) (HepG2 cells [1]; Oleyl, 5 μM): 142065 RLU; mean luminescent intensity (RLuc pDNA) (HepG2 cells [1]; Oleyl, 10 μM): 68668 RLU; mean luminescent intensity (RLuc pDNA) (HepG2 cells [1]; Palmitoleyl, 5 μM): 642665 RLU; mean luminescent intensity (RLuc pDNA) (HepG2 cells [1]; Palmitoleyl, 10 μM): 519370 RLU; mean luminescent intensity (RLuc pDNA) (HepG2 cells [1]; Palmitoleyl, 15 μM): 265272 RLU; mean luminescent intensity (RLuc pDNA) (HepG2 cells [1]; Petroselinyl, 5 μM): 466959 RLU; mean luminescent intensity (RLuc pDNA) (HepG2 cells [1]; Petroselinyl, 10 μM): 437890 RLU; mean luminescent intensity (RLuc pDNA) (HepG2 cells [1]; Petroselinyl, 15 μM): 98868 RLU; mean fluorescence intensity (EGFP mRNA) (ARPE19 cells; Myristoleyl, 2.5 μM): 22958; mean fluorescence intensity (EGFP mRNA) (ARPE19 cells; Myristoleyl, 5 μM): 6178; mean fluorescence intensity (EGFP mRNA) (ARPE19 cells; Myristoleyl, 10 μM): 1216; mean fluorescence intensity (EGFP mRNA) (ARPE19 cells; Oleyl, 5 μM): 9014; mean fluorescence intensity (EGFP mRNA) (ARPE19 cells; Oleyl, 10 μM): 4676; mean fluorescence intensity (EGFP mRNA) (ARPE19 cells; Palmitoleyl, 2.5 μM): 35030; mean fluorescence intensity (EGFP mRNA) (ARPE19 cells; Palmitoleyl, 5 μM): 28077; mean fluorescence intensity (EGFP mRNA) (ARPE19 cells; Palmitoleyl, 10 μM): 4574; mean fluorescence intensity (EGFP mRNA) (ARPE19 cells; Petroselinyl, 2.5 μM): 6471; mean fluorescence intensity (EGFP mRNA) (ARPE19 cells; Petroselinyl, 5 μM): 38057; mean fluorescence intensity (EGFP mRNA) (ARPE19 cells; Petroselinyl, 10 μM): 29449; mean fluorescence intensity after transfection of EGFP mRNA (HepG2 cells [2]; Dodecanal, 5 μM): 1140; mean fluorescence intensity after transfection of EGFP mRNA (HepG2 cells [2]; Dodecanal, 10 μM): 201; mean fluorescence intensity after transfection of EGFP mRNA (HepG2 cells [2]; Dodecanal, 15 μM): 533; mRNA delivery relative to Lipofectamine MessengerMAX (HepG2 cells [2]; HepG2, myristoleyl or petroselinyl aldehydes): able to outperform the activity of Lipofectamine® MessengerMAX; mean fluorescence intensity after transfection of EGFP mRNA (HepG2 cells [2]; Myristoleyl, 5 μM): 31364; mean fluorescence intensity after transfection of EGFP mRNA (HepG2 cells [2]; Myristoleyl, 10 μM): 12495; mean fluorescence intensity after transfection of EGFP mRNA (HepG2 cells [2]; Myristoleyl, 15 μM): 3194; mean fluorescence intensity after transfection of EGFP mRNA (HepG2 cells [2]; Oleyl, 5 μM): 4242; mean fluorescence intensity after transfection of EGFP mRNA (HepG2 cells [2]; Oleyl, 10 μM): 1217; mean fluorescence intensity after transfection of EGFP mRNA (HepG2 cells [2]; Oleyl, 15 μM): 1484; mean fluorescence intensity after transfection of EGFP mRNA (HepG2 cells [2]; Palmitoleyl, 5 μM): 8855; mean fluorescence intensity after transfection of EGFP mRNA (HepG2 cells [2]; Palmitoleyl, 10 μM): 3885; mean fluorescence intensity after transfection of EGFP mRNA (HepG2 cells [2]; Petroselinyl, 5 μM): 35842; mean fluorescence intensity after transfection of EGFP mRNA (HepG2 cells [2]; Petroselinyl, 10 μM): 18737; mean fluorescence intensity after transfection of EGFP mRNA (HepG2 cells [2]; Petroselinyl, 15 μM): 4860

Question: Which results are given for “Ac-RHLK*RLK*RRLK*RL-NH2 (Ac-RHLKRLKRRLKRL-NH2; not fully specified (residues 4, 7, 11); printed as Ac-RHLK*RLK*RRLK*RL-NH2; also: linker on K* not given here) [13(Arg-His)]”?
Answer: mean fluorescence intensity (EGFP mRNA) (Hela cells; HeLa, Palmitoleyl, 2.5 μM): 578; mean fluorescence intensity (EGFP mRNA) (Hela cells; HeLa, Petroselinyl, 2.5 μM): 360; mean fluorescence intensity (EGFP mRNA) (Hela cells; HeLa, Petroselinyl, 10 μM): −15; mean fluorescence intensity (EGFP mRNA) (Hela cells; Hela, Petroselinyl, 5 μM): 135; mean luminescent intensity (RLuc pDNA) (HepG2 cells [1]; Dodecanal, 5 μM): 38257 RLU; mean luminescent intensity (RLuc pDNA) (HepG2 cells [1]; Dodecanal, 10 μM): 45978 RLU; mean luminescent intensity (RLuc pDNA) (HepG2 cells [1]; Dodecanal, 15 μM): 15867 RLU; mean luminescent intensity (RLuc pDNA) (HepG2 cells [1]; Myristoleyl, 5 μM): 270920 RLU; mean luminescent intensity (RLuc pDNA) (HepG2 cells [1]; Myristoleyl, 10 μM): 65274 RLU; mean luminescent intensity (RLuc pDNA) (HepG2 cells [1]; Myristoleyl, 15 μM): 23425 RLU; mean luminescent intensity (RLuc pDNA) (HepG2 cells [1]; Oleyl, 5 μM): 123820 RLU; mean luminescent intensity (RLuc pDNA) (HepG2 cells [1]; Oleyl, 15 μM): −1443 RLU; mean luminescent intensity (RLuc pDNA) (HepG2 cells [1]; Palmitoleyl, 5 μM): 211155 RLU; mean luminescent intensity (RLuc pDNA) (HepG2 cells [1]; Palmitoleyl, 10 μM): 107841 RLU; mean luminescent intensity (RLuc pDNA) (HepG2 cells [1]; Palmitoleyl, 15 μM): 24788 RLU; mean luminescent intensity (RLuc pDNA) (HepG2 cells [1]; Petroselinyl, 10 μM): 133806 RLU; mean luminescent intensity (RLuc pDNA) (HepG2 cells [1]; Petroselinyl, 15 μM): 41128 RLU; mean fluorescence intensity (EGFP mRNA) (ARPE19 cells; Petroselinyl, 5 μM): 472; mean fluorescence intensity (EGFP mRNA) (ARPE19 cells; Petroselinyl, 10 μM): 216; mean fluorescence intensity after transfection of EGFP mRNA (HepG2 cells [2]; Dodecanal, 10 μM): 782; mean fluorescence intensity after transfection of EGFP mRNA (HepG2 cells [2]; Dodecanal, 15 μM): 868; mean fluorescence intensity after transfection of EGFP mRNA (HepG2 cells [2]; Oleyl, 5 μM): 5251; mean fluorescence intensity after transfection of EGFP mRNA (HepG2 cells [2]; Palmitoleyl, 5 μM): 4616; mean fluorescence intensity after transfection of EGFP mRNA (HepG2 cells [2]; Palmitoleyl, 10 μM): 2070; mean fluorescence intensity after transfection of EGFP mRNA (HepG2 cells [2]; Palmitoleyl, 15 μM): 1943; mean fluorescence intensity after transfection of EGFP mRNA (HepG2 cells [2]; Petroselinyl, 5 μM): 1986; mean fluorescence intensity after transfection of EGFP mRNA (HepG2 cells [2]; Petroselinyl, 10 μM): 508
